Patent US20260262643A1, “HERBICIDAL BENZOXAZINES” (FMC CORPORATION, priority 2022, published 2026)

Columns and labels:
foxtail, giant [1] = test: Test A postemergence; type: in vivo, Setaria faberi; conditions: postemergence, 10 days; for Foxtail, Giant plant response rating: 125 g ai/ha, 0 to 100 scale, 0 no effect, 100 complete control; for Plant response rating, Foxtail, Giant: 500 g ai/ha, visual injury, 0 to 100 scale (0 no effect, 100 complete control)
Method in brief: (§1)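 Loam/sand soil; pre-em directed soil spray at planting, post-em spray at 1–2 leaf (2–10 cm). Compound in non-phytotoxic solvent + surfactant. Greenhouse 10 d; visual injury vs untreated, 0 = no effect, 100 = complete control.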

horseweed = test: Test A postemergence; type: in vivo, Erigeron canadensis; conditions: postemergence, 10 days; for Horseweed plant response rating: 125 g ai/ha, 0 to 100 scale, 0 no effect, 100 complete control; for Plant response rating, Horseweed: 500 g ai/ha, visual injury, 0 to 100 scale (0 no effect, 100 complete control)
Method in brief: as §1

wheat [2] = test: Test A preemergence; type: in vivo, Triticum aestivum; conditions: visual injury after 10 days, 0 to 100 scale, 0 is no effect, 100 is complete control
Method in brief: as §1

barnyardgrass [3] = test: Test A preemergence; type: in vivo, Echinochloa crusgalli; conditions: visual injury after 10 days, 0 to 100 scale, 0 is no effect, 100 is complete control
Method in brief: as §1

foxtail, giant [4] = test: Test A preemergence; type: in vivo, Setaria faberi; conditions: visual injury after 10 days, 0 to 100 scale, 0 is no effect, 100 is complete control
Method in brief: as §1

barnyardgrass [5] = test: Test A postemergence; type: in vivo, Echinochloa crusgalli; conditions: postemergence, 10 days; for Barnyardgrass plant response rating: 125 g ai/ha, 0 to 100 scale, 0 no effect, 100 complete control; for Plant response rating, Barnyardgrass: 500 g ai/ha, visual injury, 0 to 100 scale (0 no effect, 100 complete control)
Method in brief: as §1

pigweed, palmer [6] = test: Test A preemergence; type: in vivo, Amaranthus palmeri; conditions: visual injury after 10 days, 0 to 100 scale, 0 is no effect, 100 is complete control
Method in brief: as §1

kochia [7] = test: Test A preemergence; type: in vivo, Bassia scoparia; conditions: visual injury after 10 days, 0 to 100 scale, 0 is no effect, 100 is complete control
Method in brief: as §1

ducksalad = test: Test B flooded paddy test; type: in vivo, Heteranthera limosa; conditions: 250 g ai/ha, Flood, 13 days, 0 to 100 scale (0 no effect, 100 complete control)
Method in brief: (§2)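 Plants at the 2-leaf stage were flooded to 3 cm above the soil, and test compounds were applied directly into the paddy water, with that depth held throughout. After 13 days in a greenhouse, injury was rated visually against untreated controls on a 0–100 scale (100 = complete control).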

kochia [8] = test: Test A postemergence; type: in vivo, Bassia scoparia; conditions: postemergence, 10 days; for Kochia plant response rating: 125 g ai/ha, 0 to 100 scale, 0 no effect, 100 complete control; for Plant response rating, Kochia: 500 g ai/ha, visual injury, 0 to 100 scale (0 no effect, 100 complete control)
Method in brief: as §1

wheat [9] = test: Test A postemergence; type: in vivo, Triticum aestivum; conditions: postemergence, 10 days; for Wheat plant response rating: 125 g ai/ha, 0 to 100 scale, 0 no effect, 100 complete control; for Plant response rating, Wheat: 500 g ai/ha, visual injury, 0 to 100 scale (0 no effect, 100 complete control)
Method in brief: as §1

soybean [10] = test: Test A preemergence; type: in vivo, Glycine max; conditions: visual injury after 10 days, 0 to 100 scale, 0 is no effect, 100 is complete control
Method in brief: as §1

oat, wild [11] = test: Test A postemergence; type: in vivo, Avena fatua; conditions: postemergence, 10 days; for Oat, Wild plant response rating: 125 g ai/ha, 0 to 100 scale, 0 no effect, 100 complete control; for Plant response rating, Oat, Wild: 500 g ai/ha, visual injury, 0 to 100 scale (0 no effect, 100 complete control)
Method in brief: as §1

barnyardgrass [12] = test: Test B flooded paddy test; type: in vivo, Echinochloa crus-galli; conditions: 250 g ai/ha, Flood, 13 days, 0 to 100 scale (0 no effect, 100 complete control)
Method in brief: as §2

oat, wild [13] = test: Test A preemergence; type: in vivo, Avena fatua; conditions: visual injury after 10 days, 0 to 100 scale, 0 is no effect, 100 is complete control
Method in brief: as §1

corn [14] = test: Test A preemergence; type: in vivo, Zea mays; conditions: visual injury after 10 days, 0 to 100 scale, 0 is no effect, 100 is complete control
Method in brief: as §1

pigweed, palmer [15] = test: Test A postemergence; type: in vivo, Amaranthus palmeri; conditions: postemergence, 10 days; for Pigweed, Palmer plant response rating: 125 g ai/ha, 0 to 100 scale, 0 no effect, 100 complete control; for Plant response rating, Pigweed, Palmer: 500 g ai/ha, visual injury, 0 to 100 scale (0 no effect, 100 complete control)
Method in brief: as §1

ryegrass, Italian [16] = test: Test A preemergence; type: in vivo, Lolium multiflorum; conditions: visual injury after 10 days, 0 to 100 scale, 0 is no effect, 100 is complete control
Method in brief: as §1

blackgrass [17] = test: Test A postemergence; type: in vivo, Alopecurus myosuroides; conditions: postemergence, 10 days; for Blackgrass plant response rating: 125 g ai/ha, 0 to 100 scale, 0 no effect, 100 complete control; for Plant response rating, Blackgrass: 500 g ai/ha, visual injury, 0 to 100 scale (0 no effect, 100 complete control)
Method in brief: as §1

ragweed [18] = test: Test A postemergence; type: in vivo, Ambrosia artemisiifolia; conditions: postemergence, 10 days; for Ragweed plant response rating: 125 g ai/ha, 0 to 100 scale, 0 no effect, 100 complete control; for Plant response rating, Ragweed: 500 g ai/ha, visual injury, 0 to 100 scale (0 no effect, 100 complete control)
Method in brief: as §1

sedge, umbrella = test: Test B flooded paddy test; type: in vivo, Cyperus difformis; conditions: 250 g ai/ha, Flood, 13 days, 0 to 100 scale (0 no effect, 100 complete control)
Method in brief: as §2

blackgrass [19] = test: Test A preemergence; type: in vivo, Alopecurus myosuroides; conditions: visual injury after 10 days, 0 to 100 scale, 0 is no effect, 100 is complete control
Method in brief: as §1

ragweed [20] = test: Test A preemergence; type: in vivo, Ambrosia artemisiifolia; conditions: visual injury after 10 days, 0 to 100 scale, 0 is no effect, 100 is complete control
Method in brief: as §1

soybean [21] = test: Test A postemergence; type: in vivo, Glycine max; conditions: postemergence, 10 days; for Plant response rating, Soybean: 500 g ai/ha, visual injury, 0 to 100 scale (0 no effect, 100 complete control)
Method in brief: as §1

ryegrass, Italian [22] = test: Test A postemergence; type: in vivo, Lolium multiflorum; conditions: postemergence, 10 days; for Ryegrass, Italian plant response rating: 125 g ai/ha, 0 to 100 scale, 0 no effect, 100 complete control; for Plant response rating, Ryegrass, Italian: 500 g ai/ha, visual injury, 0 to 100 scale (0 no effect, 100 complete control)
Method in brief: as §1

galium = test: Test A postemergence; type: in vivo, Galium aparine; conditions: postemergence, 10 days; for Galium plant response rating: 125 g ai/ha, 0 to 100 scale, 0 no effect, 100 complete control; for Plant response rating, Galium: 500 g ai/ha, visual injury, 0 to 100 scale (0 no effect, 100 complete control)
Method in brief: as §1

rice = test: Test B flooded paddy test; type: in vivo, Oryza sativa; conditions: 250 g ai/ha, Flood, 13 days, 0 to 100 scale (0 no effect, 100 complete control)
Method in brief: as §2

corn [23] = test: Test A postemergence; type: in vivo, Zea mays; conditions: postemergence, 10 days; for Corn plant response rating: 125 g ai/ha, 0 to 100 scale, 0 no effect, 100 complete control; for Plant response rating, Corn: 500 g ai/ha, visual injury, 0 to 100 scale (0 no effect, 100 complete control)
Method in brief: as §1

COCCc1ncn(-c2cccc(C(=O)N3C[C@H](C)Oc4c(C)cccc43)c2)n1 [Compound 113]
70: Oat, Wild plant response rating (oat, wild [11]) | Plant response rating, Blackgrass (blackgrass [19]; 125 g ai/ha) | Plant response rating, Ragweed (ragweed [20]; 500 g ai/ha)
20: Plant response rating, Corn (corn [14]; 125 g ai/ha)
60: Foxtail, Giant plant response rating (foxtail, giant [1]) | Barnyardgrass plant response rating (barnyardgrass [5]) | Plant response rating, Kochia (kochia [7]; 125 g ai/ha)
90: Plant response rating, Foxtail, Giant (foxtail, giant [1]) | Plant response rating, Wheat (wheat [2]; 500 g ai/ha) | Plant response rating, Barnyardgrass (barnyardgrass [3]; 125 g ai/ha) | Plant response rating, Barnyardgrass (barnyardgrass [5]) | Plant response rating, Pigweed, Palmer (pigweed, palmer [6]; 125 g ai/ha) | Plant response rating, Kochia (kochia [8]) | Plant response rating, Oat, Wild (oat, wild [13]; 500 g ai/ha) | Plant response rating, Corn (corn [14]; 500 g ai/ha) | Plant response rating, Ryegrass, Italian (ryegrass, Italian [16]; 125 g ai/ha) | Plant response rating, Blackgrass (blackgrass [17]) | Plant response rating, Blackgrass (blackgrass [19]; 500 g ai/ha) | Galium plant response rating (galium) | Corn plant response rating (corn [23]) | Plant response rating, Corn (corn [23])
10: Horseweed plant response rating (horseweed)
0: Plant response rating, Ragweed (ragweed [20]; 125 g ai/ha) | Plant response rating, Rice (rice)
45: Plant response rating, Barnyardgrass (barnyardgrass [12])
40: Kochia plant response rating (kochia [8])
65: Plant response rating, Ducksalad (ducksalad)
100: Plant response rating, Barnyardgrass (barnyardgrass [3]; 500 g ai/ha) | Plant response rating, Foxtail, Giant (foxtail, giant [4]; 125 g ai/ha) | Plant response rating, Foxtail, Giant (foxtail, giant [4]; 500 g ai/ha) | Plant response rating, Pigweed, Palmer (pigweed, palmer [6]; 500 g ai/ha) | Plant response rating, Kochia (kochia [7]; 500 g ai/ha) | Plant response rating, Ryegrass, Italian (ryegrass, Italian [16]; 500 g ai/ha) | Soybean plant response rating (soybean [21]; 125 g ai/ha, 0 to 100 scale, 0 no effect, 100 complete control) | Plant response rating, Soybean (soybean [21]) | Plant response rating, Ryegrass, Italian (ryegrass, Italian [22]) | Plant response rating, Galium (galium)
30: Plant response rating, Horseweed (horseweed) | Plant response rating, Soybean (soybean [10]; 125 g ai/ha) | Pigweed, Palmer plant response rating (pigweed, palmer [15])
50: Wheat plant response rating (wheat [9]) | Ragweed plant response rating (ragweed [18]) | Plant response rating, Ragweed (ragweed [18]) | Ryegrass, Italian plant response rating (ryegrass, Italian [22])
80: Plant response rating, Wheat (wheat [2]; 125 g ai/ha) | Plant response rating, Wheat (wheat [9]) | Plant response rating, Soybean (soybean [10]; 500 g ai/ha) | Plant response rating, Oat, Wild (oat, wild [11]) | Plant response rating, Oat, Wild (oat, wild [13]; 125 g ai/ha) | Plant response rating, Pigweed, Palmer (pigweed, palmer [15]) | Blackgrass plant response rating (blackgrass [17]) | Plant response rating, Sedge, Umbrella (sedge, umbrella)

CC(C)c1ncn(-c2ccc(OC(F)(F)F)c(C(=O)N3C[C@H](C)Oc4c(Cl)cccc43)c2)n1 [Compound 111]
10: Horseweed plant response rating (horseweed) | Wheat plant response rating (wheat [9])
90: Foxtail, Giant plant response rating (foxtail, giant [1]) | Plant response rating, Foxtail, Giant (foxtail, giant [1]) | Plant response rating, Wheat (wheat [2]; 500 g ai/ha) | Plant response rating, Barnyardgrass (barnyardgrass [3]; 125 g ai/ha) | Plant response rating, Pigweed, Palmer (pigweed, palmer [6]; 125 g ai/ha) | Plant response rating, Kochia (kochia [7]; 500 g ai/ha) | Plant response rating, Oat, Wild (oat, wild [13]; 500 g ai/ha) | Plant response rating, Pigweed, Palmer (pigweed, palmer [15]) | Plant response rating, Ragweed (ragweed [20]; 500 g ai/ha)
40: Plant response rating, Wheat (wheat [9]) | Oat, Wild plant response rating (oat, wild [11]) | Plant response rating, Corn (corn [14]; 500 g ai/ha) | Blackgrass plant response rating (blackgrass [17]) | Corn plant response rating (corn [23])
98: Plant response rating, Sedge, Umbrella (sedge, umbrella)
65: Plant response rating, Ducksalad (ducksalad)
80: Plant response rating, Barnyardgrass (barnyardgrass [5]) | Plant response rating, Kochia (kochia [7]; 125 g ai/ha) | Kochia plant response rating (kochia [8]) | Plant response rating, Corn (corn [23])
0: Plant response rating, Rice (rice)
30: Barnyardgrass plant response rating (barnyardgrass [5]) | Plant response rating, Corn (corn [14]; 125 g ai/ha) | Plant response rating, Blackgrass (blackgrass [19]; 125 g ai/ha) | Ryegrass, Italian plant response rating (ryegrass, Italian [22])
20: Plant response rating, Ragweed (ragweed [20]; 125 g ai/ha)
60: Plant response rating, Wheat (wheat [2]; 125 g ai/ha) | Ragweed plant response rating (ragweed [18]) | Plant response rating, Ryegrass, Italian (ryegrass, Italian [22])
70: Plant response rating, Soybean (soybean [10]; 125 g ai/ha) | Plant response rating, Oat, Wild (oat, wild [13]; 125 g ai/ha) | Pigweed, Palmer plant response rating (pigweed, palmer [15]) | Plant response rating, Ryegrass, Italian (ryegrass, Italian [16]; 125 g ai/ha) | Plant response rating, Ragweed (ragweed [18]) | Plant response rating, Blackgrass (blackgrass [19]; 500 g ai/ha)
100: Plant response rating, Barnyardgrass (barnyardgrass [3]; 500 g ai/ha) | Plant response rating, Foxtail, Giant (foxtail, giant [4]; 125 g ai/ha) | Plant response rating, Foxtail, Giant (foxtail, giant [4]; 500 g ai/ha) | Plant response rating, Pigweed, Palmer (pigweed, palmer [6]; 500 g ai/ha) | Plant response rating, Kochia (kochia [8]) | Plant response rating, Soybean (soybean [10]; 500 g ai/ha) | Plant response rating, Ryegrass, Italian (ryegrass, Italian [16]; 500 g ai/ha) | Plant response rating, Soybean (soybean [21]) | Galium plant response rating (galium) | Plant response rating, Galium (galium)
55: Plant response rating, Barnyardgrass (barnyardgrass [12])
50: Plant response rating, Horseweed (horseweed) | Plant response rating, Oat, Wild (oat, wild [11]) | Plant response rating, Blackgrass (blackgrass [17])
